Experimental data as given in PubChem BioAssay (NCI).
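96-well plates; 48 h exposure; 5 concentrations. Endpoints by linear interpolation between flanking doses. Not reached: highest tested concentration assigned. TGI marks complete inhibition of growth.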

Key:
Assay in all cases: NCI tumour cell line growth inhibition, 48 h
SNB-78 CNS = system: SNB-78 CNS
XF 498 CNS = system: XF 498 CNS
DMS 114 small cell lung = system: DMS 114 small cell lung
M19-MEL melanoma = system: M19-MEL melanoma
HOP-18 NSCLC = system: HOP-18 NSCLC
P388 leukemia = system: P388 leukemia
SN12K1 renal = system: SN12K1 renal
P388/ADR leukemia = system: P388/ADR leukemia
RXF-631 renal = system: RXF-631 renal

Row | SMILES | TGI (SNB-78 CNS) [µM] | TGI (XF 498 CNS) [µM] | TGI (DMS 114 small cell lung) [µM] | TGI (M19-MEL melanoma) [µM] | TGI (HOP-18 NSCLC) [µM] | TGI (P388 leukemia) [µM] | TGI (SN12K1 renal) [µM] | TGI (P388/ADR leukemia) [µM] | TGI (RXF-631 renal) [µM]
1 | OCc1ccc(C2CC(c3ccco3)=NN2c2ccccc2)o1 (stereo not drawn) | > 100 | > 100 | > 100 | > 100 |  |  |  |  | 
2 | COc1c(C(C)C)cc2c3c1OC(=O)[C@@]31CCCC(C)(C)C1CC2 (stereo partly drawn) | 67.1 |  |  | 80.8 |  |  |  |  | 
3 | O=C(CN(c1ccccc1)c1ccccc1)n1nnc2ccccc21 | > 100 |  | 85.7 | 48.6 |  |  |  |  | 
4 | COc1ccc(C2COc3cc(O)c(O)cc3C2)cc1 (stereo not drawn) | 268 |  |  | 86.6 | 110 | 18.7 | 98.9 | 8.53 | 
5 | Nc1ccn(C2OC(CO)C(O)C2O)c(=O)c1 (stereo not drawn) | > 625 | < 0.0625 |  |  | > 625 | > 625 | > 625 |  | 
6 | O=c1c(C(c2ccc(Cl)cc2)c2c(O)c3ccccc3n(-c3ccccc3)c2=O)c(O)c2ccccc2n1-c1ccccc1 | > 100 | 69.4 | > 100 | > 100 | > 100 |  |  |  | > 100
7 | COc1cc2c3c(c1OC)C1(C=CC(=O)C=C1)C[C@H]3N(C)CC2 | > 100 | > 100 | > 100 | > 100 | > 100 |  |  |  | > 100
8 | CSc1sc2ccccc2[s+]1 |  |  | > 100 | > 100 | > 100 |  |  |  | > 100
9 | CC(=O)O[C@]12CCCCCC1C1(O)C(O)CCCC[C@H]12 (stereo partly drawn) | > 100 | > 100 | > 100 | > 100 |  |  |  |  | 
10 | CC(=O)[C@@]1(O)CC[C@H]2[C@@H]3C[C@H](C)C4=CC(=O)C=C[C@]4(C)[C@@]3(F)[C@@H](O)C[C@@]21C | > 100 | > 100 | > 100 | > 100 |  |  |  |  | > 100
11 | O=NN(CCCl)C(=O)NC1CCC(O)CC1 (stereo not drawn) | 63.3 | 60.3 | 51.5 | > 91 | > 90.9 | 20.5 | > 100 | 18 | 
12 | Cc1ccc(S(=O)(=O)C(C#N)c2nc3ccccc3nc2-n2ccnc2)cc1 (stereo not drawn) | > 100 | > 100 | > 100 | > 100 | > 100 |  |  |  | 
